The supplement of paper PMC8253809

Legend:
[1] = test system: DIPGX37 (H3.3 K27M diffuse intrinsic pontine glioma line); experiment: area under dose-response curve of % growth inhibition (log2 RLU vs DMSO / staurosporine), 1e-11 to 1e-4 M (% x log10 M); higher = more growth inhibition
Outline: (§1)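 Area under the curve was derived with the trapezoid rule from a fitted log-logistic curve, switching to a smoothing spline if the sigmoid fit failed. It rested on per-plate % activity between solvent and positive controls, calculated from log2-transformed CellTiter-Glo luminescence after 7 days of exposure (3 days for iAstro) at 37 °C, 5% CO2. Patient-derived pHGG/DIPG lines and astrocytes on 1% Geltrex-coated 384-well plates received a 10-point threefold dilution series, mean top concentration 35 μM, in triplicate.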

[2] = test system: HGGX39 (paediatric high-grade glioma line); experiment: as above
Outline: as §1

[3] = test system: HGGX6 (H3.3 G34R paediatric high-grade glioma line); experiment: as above
Outline: as §1

[4] = test system: DIPGX29 (H3.3 K27M diffuse intrinsic pontine glioma line); experiment: as above
Outline: as §1

[5] = test system: DIPGX37; experiment: maximal growth inhibition (yFin) relative to DMSO / staurosporine; higher = more efficacious
Outline: (§2)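 Compounds were delivered by pin tool as a 10-point threefold dilution series with a mean top concentration of 35 μM, in triplicate, to patient-derived pHGG/DIPG cell lines and astrocyte controls growing on 1% Geltrex-coated 384-well plates. Incubation lasted 7 days, or 3 days for iAstro, at 37 °C with 5% CO2. EC50 and maximal response (yFin) come from the three- or four-parameter log-logistic fit with the lowest AICc, applied to pooled, log2-transformed CellTiter-Glo luminescence normalised per plate to % activity between solvent (negative) and positive control wells.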

[6] = test system: HGGX39; experiment: as above
Outline: as §2

[7] = test system: HGGX6; experiment: as above
Outline: as §2

[8] = test system: DIPGX29; experiment: as above
Outline: as §2

[9] = test system: DIPGX37; experiment: EC50 (inflection of fitted growth-inhibition curve) (log10 M)
Outline: as §2

[10] = test system: HGGX39; experiment: as above
Outline: as §2

[11] = test system: HGGX6; experiment: as above
Outline: as §2

[12] = test system: DIPGX29; experiment: as above
Outline: as §2

| SMILES | area under dose-response curve [1] | area under dose-response curve [2] | area under dose-response curve [3] | area under dose-response curve [4] | maximal growth inhibition [5] [%] | maximal growth inhibition [6] [%] | maximal growth inhibition [7] [%] | maximal growth inhibition [8] [%] | EC50 (log10 M) [9] | EC50 (log10 M) [10] | EC50 (log10 M) [11] | EC50 (log10 M) [12] |
| --- | --- | --- | --- | --- | --- | --- | --- | --- | --- | --- | --- | --- |
| OCCN1CCN(CCCN2c3ccccc3Sc3ccc(C(F)(F)F)cc32)CC1 [FLUFENAZINE] | 59.8 | 64 | 67.4 | 45.7 | 65.2 | 65.9 | 63.5 | 61.6 | -4.74 | -4.77 | -4.76 | -4.74 |
| Fc1ccc(C(c2ccc(F)cc2)N2CCN(C/C=C/c3ccccc3)CC2)cc1 [FLUNARIZINE] | 62.8 | 73.5 | 56.4 | 61.5 | 74.5 | 83 | 65.9 | 71.7 | -4.84 | -4.91 | -4.86 | -4.86 |
| C[C@@H](O[C@H]1OCCN(Cc2nn(P(=O)(O)O)c(=O)[nH]2)[C@H]1c1ccc(F)cc1)c1cc(C(F)(F)F)cc(C(F)(F)F)c1 [FOSAPREPITANT] | 70.6 | 66.7 | 47.1 | 63.6 | 69.8 | 82.4 | 56 | 60.6 | -4.83 | -4.81 | -4.84 | -4.84 |
| CCn1c(=O)c(-c2ccc(Cl)cc2Cl)cc2cnc(Nc3ccc(N4CCNCC4)c(F)c3)nc21 [FRAX486] | 142 | 139 | 97.4 | 135 | 81 | 84.5 | 73.5 | 80.4 | -5.3 | -5.64 | -5.32 | -5.23 |
| COc1cc2ncnc(Nc3ccc(F)c(Cl)c3)c2cc1OCCCN1CCOCC1 [GEFITINIB] | 46.1 | 47.9 | 47.8 | 54.3 | 69.8 | 73.7 | 65.7 | 58.3 | -4.66 | -4.65 | -4.67 | -4.7 |
| CN(C)c1ccc(C(=C2C=CC(=[N+](C)C)C=C2)c2ccc(N(C)C)cc2)cc1 [GENTIAN VIOLET] | 152 | 164 | 133 | 158 | 124 | 121 | 112 | 128 | -5.13 | -4.97 | -5.16 | -5.15 |
| COc1cc(C(=O)N2CC[C@@H](O)[C@@H](N)C2)cc2nc(-c3cc4ccccc4n3CC3CC3)n(C)c12 [GSK-484] | 67.7 | 20.6 | 48.9 | 54.6 | 64 | 20.9 | 45.4 | 50.1 | -4.89 | -4.99 | -4.98 | -4.94 |
| C=CC(=O)N1CCC[C@@H](n2nc(-c3ccc(Oc4ccccc4)cc3)c3c(N)ncnc32)C1 [IBRUTINIB] | 53.7 | 50.1 | 35.8 | 49.8 | 41.2 | 53.1 | 35.5 | 29.8 | -4.96 | -4.94 | -5.01 | -5 |
| O=C1[C@H](Cc2ccc(O)cc2)N2C(=O)CCN(C(=O)NCc3ccccc3)[C@H]2CN1Cc1cccc2ccccc12 [ICG001] | 51.9 | 52.2 | 41.9 | 29.3 | 33.4 | 32.6 | 31.8 | 21.3 | -5.54 | -5.67 | -5.14 | -5.37 |
| CC(C)(C)c1cc(C(C)(C)C)c(NC(=O)c2c[nH]c3ccccc3c2=O)cc1O [IVACAFTOR] | 99.3 | 101 | 91.8 | 90.3 | 97 | 97.1 | 91 | 90.9 | -4.98 | -5.04 | -5.01 | -4.99 |
| CC(=O)N1CCN(c2ccc(OCC3COC(Cn4ccnc4)(c4ccc(Cl)cc4Cl)O3)cc2)CC1 (stereo not given) [KETOCONAZOLE] | 36.1 | 73.6 | 53.4 | 40.9 | 37.6 | 68.2 | 56.7 | 40.2 | -4.96 | -5.12 | -4.94 | -4.92 |
| CCOC(=O)C1=C(C)NC(C)=C(C(=O)OCC)C1c1ccccc1/C=C/C(=O)OC(C)(C)C [LACIDIPINE] | 75.3 | 76.3 | 63.4 | 72.8 | 91.1 | 90.8 | 74.3 | 87.2 | -4.83 | -4.84 | -4.86 | -4.84 |
| CS(=O)(=O)CCNCc1ccc(-c2ccc3ncnc(Nc4ccc(OCc5cccc(F)c5)c(Cl)c4)c3c2)o1 [LAPATINIB] | 72.5 | 55 | 57.8 | 70.3 | 78.4 | 76.9 | 76.8 | 76.7 | -4.7 | -4.71 | -4.69 | -4.72 |
| Cc1cn(CCN2CCN(c3ccccc3-c3cc(C#N)cc(C(=O)NCCCN4CCCC4)c3)CC2)c2ccccc12 [LLY-507] | 92.2 | 66.6 | 92.5 | 86.5 | 75.6 | 79.1 | 79.4 | 76.7 | -5.22 | -4.84 | -5.12 | -5.13 |
| CN(C)C(=O)C(CCN1CCC(O)(c2ccc(Cl)cc2)CC1)(c1ccccc1)c1ccccc1 [LOPERAMIDE] | 84 | 60.8 | 58.7 | 75.5 | 93.9 | 80.5 | 79.2 | 81.5 | -4.74 | -4.75 | -4.74 | -4.79 |
